Data as given in paper PMC7369900 (International Journal of Molecular Sciences, 2020).
In brackets after ≈: the same amount, converted by molar mass.

Test system: C. albicans Gu5

SMILES | MIC50
CC[C@H](C)[C@H](NC(=O)[C@H](CCCCN)NC(=O)[C@H](CCCCN)NC(=O)[C@H](C)NC(=O)[C@H](CC(C)C)NC(=O)[C@H](C)NC(=O)[C@H](C)NC(=O)[C@H](CC(C)C)NC(=O)[C@H](C)NC(=O)[C@H](CCCCN)NC(=O)[C@H](CC(C)C)NC(=O)[C@H](CC(N)=O)NC(=O)[C@@H](NC(=O)[C@H](CCCCN)NC(=O)CNC(=O)[C@H](CC(C)C)NC(=O)[C@H](CC(C)C)NC(=O)[C@H](Cc1ccc(O)cc1)NC(=O)CNC(=O)[C@H](C)NC(=O)c1cn(C2CC2)c2cc(N3CCNCC3)c(F)cc2c1=O)[C@@H](C)CC)C(=O)N[C@@H](CC(C)C)C(N)=O [Compound 2, CIP-TP10-NH2] | 25 µM (≈ 62.4 µg/mL)
CC[C@H](C)[C@H](NC(=O)[C@H](CCCCN)NC(=O)[C@H](CCCCN)NC(=O)[C@H](C)NC(=O)[C@H](CC(C)C)NC(=O)[C@H](C)NC(=O)[C@H](C)NC(=O)[C@H](CC(C)C)NC(=O)[C@H](C)NC(=O)[C@H](CCCCN)NC(=O)[C@H](CC(C)C)NC(=O)[C@H](CC(N)=O)NC(=O)[C@@H](NC(=O)[C@H](CCCCN)NC(=O)CNC(=O)[C@H](CC(C)C)NC(=O)[C@H](CC(C)C)NC(=O)[C@H](Cc1ccc(O)cc1)NC(=O)CNC(=O)[C@H](C)NC(=O)CCSSCCC(=O)N1CCN(c2cc3c(cc2F)c(=O)c(C(=O)O)cn3C2CC2)CC1)[C@@H](C)CC)C(=O)N[C@@H](CC(C)C)C(N)=O [Compound 3, CIP-S-S-TP10-NH2] | 12.5 µM (≈ 33.6 µg/mL)
CC[C@H](C)[C@H](NC(=O)[C@H](CCCCN)NC(=O)[C@H](CCCCN)NC(=O)[C@H](C)NC(=O)[C@H](CC(C)C)NC(=O)[C@H](C)NC(=O)[C@H](C)NC(=O)[C@H](CC(C)C)NC(=O)[C@H](C)NC(=O)[C@H](CCCCN)NC(=O)[C@H](CC(C)C)NC(=O)[C@H](CC(N)=O)NC(=O)[C@@H](NC(=O)[C@H](CCCCN)NC(=O)CNC(=O)[C@H](CC(C)C)NC(=O)[C@H](CC(C)C)NC(=O)[C@H](Cc1ccc(O)cc1)NC(=O)CNC(=O)[C@H](C)NC(=O)CN1CCN(c2cc3c(cc2F)c(=O)c(C(=O)O)cn3C2CC2)CC1)[C@@H](C)CC)C(=O)N[C@@H](CC(C)C)C(N)=O [Compound 1, CIP-CH2CO-TP10-NH2] | 50 µM (≈ 128 µg/mL)
CC[C@H](C)[C@H](NC(=O)[C@H](CCCCN)NC(=O)[C@H](CCCCN)NC(=O)[C@H](C)NC(=O)[C@H](CC(C)C)NC(=O)[C@H](C)NC(=O)[C@H](C)NC(=O)[C@H](CC(C)C)NC(=O)[C@H](C)NC(=O)[C@H](CCCCN)NC(=O)[C@H](CC(C)C)NC(=O)[C@H](CC(N)=O)NC(=O)[C@@H](NC(=O)[C@H](CCCCN)NC(=O)CNC(=O)[C@H](CC(C)C)NC(=O)[C@H](CC(C)C)NC(=O)[C@H](Cc1ccc(O)cc1)NC(=O)CNC(=O)[C@H](C)NC(=O)c1cn2c3c(c(N4CCN(C)CC4)c(F)cc3c1=O)OC[C@@H]2C)[C@@H](C)CC)C(=O)N[C@@H](CC(C)C)C(N)=O [Compound 4, LVX-TP10-NH2] | 25 µM (≈ 63.1 µg/mL)
CC[C@H](C)[C@H](NC(=O)[C@H](CCCCN)NC(=O)[C@H](CCCCN)NC(=O)[C@H](C)NC(=O)[C@H](CC(C)C)NC(=O)[C@H](C)NC(=O)[C@H](C)NC(=O)[C@H](CC(C)C)NC(=O)[C@H](C)NC(=O)[C@H](CCCCN)NC(=O)[C@H](CC(C)C)NC(=O)[C@H](CC(N)=O)NC(=O)[C@@H](NC(=O)[C@H](CCCCN)NC(=O)CNC(=O)[C@H](CC(C)C)NC(=O)[C@H](CC(C)C)NC(=O)[C@H](Cc1ccc(O)cc1)NC(=O)CNC(=O)[C@H](C)NC(=O)[C@@H](N)CSSC[C@H](N)C(=O)N1CCN(c2cc3c(cc2F)c(=O)c(C(=O)O)cn3C2CC2)CC1)[C@@H](C)CC)C(=O)N[C@@H](CC(C)C)C(N)=O [Compound 6, CIPC-S-S-CTP10-NH2] | 25 µM (≈ 67.9 µg/mL)
CC[C@H](C)[C@H](NC(=O)[C@H](CCCCN)NC(=O)[C@H](CCCCN)NC(=O)[C@H](C)NC(=O)[C@H](CC(C)C)NC(=O)[C@H](C)NC(=O)[C@H](C)NC(=O)[C@H](CC(C)C)NC(=O)[C@H](C)NC(=O)[C@H](CCCCN)NC(=O)[C@H](CC(C)C)NC(=O)[C@H](CC(N)=O)NC(=O)[C@@H](NC(=O)[C@H](CCCCN)NC(=O)CNC(=O)[C@H](CC(C)C)NC(=O)[C@H](CC(C)C)NC(=O)[C@H](Cc1ccc(O)cc1)NC(=O)CNC(=O)[C@H](C)NC(=O)[C@@H](N)CSSC[C@H](NC(=O)c1cn2c3c(c(N4CCN(C)CC4)c(F)cc3c1=O)OC[C@@H]2C)C(=O)O)[C@@H](C)CC)C(=O)N[C@@H](CC(C)C)C(N)=O [Compound 5, LVXC-S-S-CTP10-NH2] | 12.5 µM (≈ 34.3 µg/mL)
CC[C@H](C)[C@H](NC(=O)[C@H](CCCCN)NC(=O)[C@H](CCCCN)NC(=O)[C@H](C)NC(=O)[C@H](CC(C)C)NC(=O)[C@H](C)NC(=O)[C@H](C)NC(=O)[C@H](CC(C)C)NC(=O)[C@H](C)NC(=O)[C@H](CCCCN)NC(=O)[C@H](CC(C)C)NC(=O)[C@H](CC(N)=O)NC(=O)[C@@H](NC(=O)[C@H](CCCCN)NC(=O)CNC(=O)[C@H](CC(C)C)NC(=O)[C@H](CC(C)C)NC(=O)[C@H](Cc1ccc(O)cc1)NC(=O)CNC(=O)[C@H](C)N)[C@@H](C)CC)C(=O)N[C@@H](CC(C)C)C(N)=O [TP10-NH2, transportan 10, reference compound] | 100 µM (≈ 218 µg/mL)
